Molecules are shown by their SMILES. Where a name gives a salt, the structure may show the parent alone. Read-outs that look alike come from different tables or passages of the source.

Format in all cases: biochemical
Test [1] deals with MASP-2 (CCP1-CCP2-SP) (Homo sapiens (Human), UniProt O00187). Nature of the test: biochemical.
The target of test [2] is mMASP-2 (Mus musculus (Mouse), UniProt Q91WP0). Nature of the test: Enzymatic inhibition of mMASP-2. The following applies: read-out: mMASP-2 Ki.
Test [3] deals with human α-thrombin (Homo sapiens (Human), UniProt P00734). Nature of the test: Enzymatic assay for thrombin (Boc-VPR-AMC substrate).
[4] abbreviates: MASP-2 inhibition versus thrombin.
[5] abbreviates: selectivity for MASP-2 inhibition versus thrombin.

mMASP-2, sequence (Q91WP0 20-685): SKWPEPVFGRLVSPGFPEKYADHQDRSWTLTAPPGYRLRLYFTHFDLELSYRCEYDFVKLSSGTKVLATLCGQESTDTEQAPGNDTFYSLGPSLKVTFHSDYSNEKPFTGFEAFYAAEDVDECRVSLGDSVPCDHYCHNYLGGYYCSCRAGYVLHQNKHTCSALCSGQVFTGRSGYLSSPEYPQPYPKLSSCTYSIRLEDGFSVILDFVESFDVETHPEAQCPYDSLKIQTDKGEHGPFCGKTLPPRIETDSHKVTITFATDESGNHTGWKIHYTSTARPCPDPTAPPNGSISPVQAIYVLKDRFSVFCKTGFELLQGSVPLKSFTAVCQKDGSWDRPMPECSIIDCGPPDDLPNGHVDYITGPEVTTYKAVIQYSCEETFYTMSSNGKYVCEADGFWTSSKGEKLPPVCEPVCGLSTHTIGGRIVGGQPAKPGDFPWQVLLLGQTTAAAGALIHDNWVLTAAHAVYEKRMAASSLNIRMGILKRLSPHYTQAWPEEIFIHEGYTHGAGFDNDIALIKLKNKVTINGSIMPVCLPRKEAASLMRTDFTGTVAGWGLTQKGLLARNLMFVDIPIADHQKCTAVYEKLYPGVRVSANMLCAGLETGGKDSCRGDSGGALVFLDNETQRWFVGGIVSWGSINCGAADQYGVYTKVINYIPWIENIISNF
MASP-2 (CCP1-CCP2-SP), sequence (O00187 445-686): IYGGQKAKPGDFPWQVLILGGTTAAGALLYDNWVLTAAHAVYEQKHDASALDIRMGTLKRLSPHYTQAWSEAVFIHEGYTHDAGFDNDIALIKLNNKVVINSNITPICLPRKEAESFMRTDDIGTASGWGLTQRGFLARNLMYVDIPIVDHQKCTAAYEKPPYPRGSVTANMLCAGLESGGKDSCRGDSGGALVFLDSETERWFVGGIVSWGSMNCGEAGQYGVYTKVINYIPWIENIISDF

In the case of `C[C@@H](NC(=O)[C@H](N)CCc1ccccc1)C(=O)NCc1ccc2nc(N)[nH]c2c1` [compound 1170], the “MASP-2 vs. thrombin selectivity” value in test [1] (setting [4]) is listed as “**** (>100-fold)”. The Ki in test [1] (read-out: MASP-2 Ki) was less than 0.5 µM; in test [2], less than 25 µM; in test [3] (read-out: Thrombin Ki), more than 25 µM.
`C[C@H](NC(=O)[C@@H](CCc1ccccc1)NCc1ccc(-c2nnn[nH]2)cc1)C(=O)NCc1ccc(C(=N)N)cc1` [compound 1233, (R)-2-((4-(1H-Tetrazol-5-yl)benzyl)amino)-N—((S)-1-((4-carbamimidoylbenzyl)amino)-1-oxopropan-2-yl)-4-phenylbutanamide]: the Ki was less than 0.5 µM in test [1] (read-out: MASP-2 Ki), less than 0.5 µM in test [2] and 0.5 to 2.5 µM in test [3] (Thrombin Ki (μM)). The “MASP-2 vs. thrombin selectivity” value in test [1] (setting [5]) was “* (≥1.0 to <5.0-fold)”.
For the compound `C[C@H](NC(=O)[C@H]1C[C@H](c2ccccc2)CN1)C(=O)NCc1cc(Cl)cc(C#N)c1` [compound 1386, (2R,4R)—N—((S)-1-((3-Chloro-5-cyanobenzyl)amino)-1-oxopropan-2-yl)-4-phenylpyrrolidine-2-carboxamide Trifluoroacetate salt], the Ki was 10 to 25 µM in test [1], more than 25 µM in test [2] and more than 25 µM in test [3] (read-out: Thrombin Ki).
Turning to `Cc1nc(N)ccc1CNC(=O)[C@H](C)NC(=O)[C@H]1C[C@H](Cc2cc(C(F)(F)F)cc(C(F)(F)F)c2)CN1` [compound 1424, (2R,4S)—N—((S)-1-(((6-Amino-2-methylpyridin-3-yl)methyl)amino)-1-oxopropan-2-yl)-4-(3,5-bis(trifluoromethyl)benzyl)pyrrolidine-2-carboxamide Di-trifluoroacetate salt], the figures for the Ki in test [1], in test [2] and in test [3] (read-out: Thrombin Ki) were 0.5 to 2.5 µM, 0.5 to 2.5 µM and less than 0.5 µM, respectively.
As for `COc1ccc(C[C@@H]2CN[C@@H](C(=O)N[C@@H](C)C(=O)NCc3ccc(N)nc3C)C2)cc1Cl` [compound 1475, (2R,4S)—N—((S)-1-(((6-Amino-2-methylpyridin-3-yl)methyl)amino)-1-oxopropan-2-yl)-4-(3-chloro-4-methoxybenzyl)pyrrolidine-2-carboxamide Di-trifluoroacetate salt], the results for the Ki in test [1] (read-out: MASP-2 Ki), in test [2] and in test [3] (Thrombin Ki (μM)) were less than 0.5 µM, less than 0.5 µM and 10 to 25 µM, respectively. Besides, in test [1] (setting [5]), the “MASP-2 vs. thrombin selectivity” value is “**** (≥100-fold)”.
For the compound `C[C@H](NC(=O)[C@H](N)CCc1ccc(Cl)cc1)C(=O)NCc1ccc(C(=N)N)cc1` [compound 1080], the “MASP-2 vs. thrombin selectivity” value in test [1] (setting [4]) was “** (5.0 to 25-fold)”. Further, the Ki in test [1] (read-out: MASP-2 Ki), in test [2] and in test [3] (read-out: Thrombin Ki) was less than 0.5 µM each time.
Regarding `C[C@H](NC(=O)[C@H]1C[C@@H](c2cccc(C(F)(F)F)c2)CN1)C(=O)NCc1ccc(C(=N)N)cc1` [compound 1276, (2R,4S)—N—((S)-1-((4-Carbamimidoylbenzyl)amino)-1-oxopropan-2-yl)-4-(3-(trifluoromethyl)phenyl)pyrrolidine-2-carboxamide], the results for the Ki in test [1] (read-out: MASP-2 Ki), in test [2] and in test [3] (Thrombin Ki (μM)) were less than 0.5 µM, less than 0.5 µM and 0.5 to 2.5 µM, respectively. Also, the “MASP-2 vs. thrombin selectivity” value in test [1] (setting [5]) is listed as “*** (≥25 to <100-fold)”.
For the compound `CCc1cccc([C@H]2CN[C@@H](C(=O)N[C@@H](C)C(=O)NCc3ccc(N)nc3C)C2)c1` [compound 1303, (2R,4S)—N—((S)-1-(((6-Amino-2-methylpyridin-3-yl)methyl)amino)-1-oxopropan-2-yl)-4-(3-ethylphenyl)pyrrolidine-2-carboxamide Dihydrochloride], the figures for the Ki in test [1] (read-out: MASP-2 Ki), in test [2] and in test [3] (read-out: Thrombin Ki) were less than 0.5 µM, 2.5 to 10 µM and more than 25 µM, respectively. Moreover, the “MASP-2 vs. thrombin selectivity” value in test [1] (setting [5]) is listed as “*** (≥25 to <100-fold)”.
Turning to `Cc1cc(C[C@@H]2CN[C@@H](C(=O)N[C@@H](C)C(=O)NCc3ccc(N)nc3C)C2)ccn1` [compound 1469, (2R,4S)—N—((S)-1-(((6-Amino-2-methylpyridin-3-yl)methyl)amino)-1-oxopropan-2-yl)-4-((2-methylpyridin-4-yl)methyl)pyrrolidine-2-carboxamide Dihydrochloride], the Ki in test [1] (read-out: MASP-2 Ki) is less than 0.5 µM; in test [2] it was less than 0.5 µM; in test [3] (Thrombin Ki (μM)), 2.5 to 10 µM. The “MASP-2 vs. thrombin selectivity” value in test [1] (setting [5]) is on record as “**** (≥100-fold)”.
As to `C[C@H](NC(=O)[C@H]1C[C@@H](c2ccccc2)CCN1)C(=O)NCc1ccccc1` [compound 1271, (2R,4S)—N—((S)-1-(benzylamino)-1-oxopropan-2-yl)-4-phenylpiperidine-2-carboxamide], the Ki in test [1] is 2.5 to 10 µM; in test [2], more than 25 µM; in test [3] (read-out: Thrombin Ki), more than 25 µM.
For the compound `Cc1nc(N)ccc1CNC(=O)[C@H](C)NC(=O)[C@H]1C[C@H](c2ccccc2)CCN1` [compound 1308, (2R,4R)—N—((S)-1-(((6-Amino-2-methylpyridin-3-yl)methyl)amino)-1-oxopropan-2-yl)-4-phenylpiperidine-2-carboxamide Dihydrochloride], the results for the Ki in test [1], in test [2] and in test [3] (Thrombin Ki (μM)) were 0.5 to 2.5 µM, 0.5 to 2.5 µM and 10 to 25 µM, respectively. In addition, the “MASP-2 vs. thrombin selectivity” value in test [1] (setting [5]) was “** (≥5.0 to <25-fold)”.
As to `C[C@H](NC(=O)[C@H](N)CCc1ccccc1)C(=O)NCc1cc(Br)ccc1O` [compound 1279, (R)-2-amino-N—((S)-1-((5-bromo-2-hydroxybenzyl)amino)-1-oxopropan-2-yl)-4-phenylbutanamide], the Ki in test [1] was 0.5 to 2.5 µM; in test [2] it was more than 25 µM; in test [3] (Thrombin Ki (μM)), 2.5 to 10 µM. Moreover, the “MASP-2 vs. thrombin selectivity” value in test [1] (setting [5]) was “** (≥5.0 to <25-fold)”.
Consider `Cc1nc(N)ccc1CNC(=O)[C@H](C)NC(=O)[C@H]1C[C@H](Cc2cc(Br)c(Cl)s2)CN1` [compound 1483, (2R,4R)—N—((S)-1-(((6-Amino-2-methylpyridin-3-yl)methyl)amino)-1-oxopropan-2-yl)-4-((4-bromo-5-chlorothiophen-2-yl)methyl)pyrrolidine-2-carboxamide Di-trifluoroacetate salt], for which the figures for the Ki in test [1] (read-out: MASP-2 Ki), in test [2] and in test [3] (Thrombin Ki (μM)) were less than 0.5 µM, less than 0.5 µM and 10 to 25 µM, respectively. For the same compound, the “MASP-2 vs. thrombin selectivity” value in test [1] (setting [5]) was “**** (≥100-fold)”.
`Cc1nc(N)ccc1CNC(=O)[C@H](C)NC(=O)[C@H]1C[C@H](Cc2ccc(OC(F)(F)F)c(Cl)c2)CN1` [compound 1455, (2R,4S)—N—((S)-1-(((6-Amino-2-methylpyridin-3-yl)methyl)amino)-1-oxopropan-2-yl)-4-(3-chloro-4-(trifluoromethoxy)benzyl)pyrrolidine-2-carboxamide Di-trifluoroacetate salt]: the Ki in test [1] (read-out: MASP-2 Ki) is less than 0.5 µM; in test [2], less than 0.5 µM; in test [3] (read-out: Thrombin Ki) it was more than 25 µM. Further, the “MASP-2 vs. thrombin selectivity” value in test [1] (setting [5]) was “**** (≥100-fold)”.
On to `Cc1nc(N)ccc1CNC(=O)[C@H](C)NC(=O)[C@H]1C[C@H](C2(c3ccccc3)CC2)CN1` [compound 1481, (2R,4R)—N—((S)-1-(((6-Amino-2-methylpyridin-3-yl)methyl)amino)-1-oxopropan-2-yl)-4-(1-phenylcyclopropyl)pyrrolidine-2-carboxamide Di-trifluoroacetate salt], for which the values for the Ki in test [1] (read-out: MASP-2 Ki), in test [2] and in test [3] (Thrombin Ki (μM)) were less than 0.5 µM, less than 0.5 µM and 2.5 to 10 µM, respectively. Further, in test [1] (setting [5]), the “MASP-2 vs. thrombin selectivity” value is “**** (≥100-fold)”.
For `C[C@H](NC(=O)[C@H]1C[C@H](c2ccccc2)CN1)C(=O)NCc1cc(Cl)c2[nH]cnc2c1` [compound 1417, (2R,4R)—N—((S)-1-(((7-Chloro-1H-benzo[d]imidazol-5-yl)methyl)amino)-1-oxopropan-2-yl)-4-phenylpyrrolidine-2-carboxamide Trifluoroacetate salt], the Ki in test [1] is 0.5 to 2.5 µM; in test [2], 2.5 to 10 µM; in test [3] (read-out: Thrombin Ki), more than 25 µM.
On to `Cc1cc(Cl)cc(CNC(=O)[C@H](C)NC(=O)[C@H]2C[C@H](Cc3ccccc3)CN2)c1O` [compound 1307, (2R,4S)-4-Benzyl-N-((S)-1-((5-chloro-2-hydroxy-3-methylbenzyl)amino)-1-oxopropan-2-yl)pyrrolidine-2-carboxamide Hydrochloride], for which the Ki in test [1] (read-out: MASP-2 Ki) was less than 0.5 µM; in test [2] it was less than 0.5 µM; in test [3] (read-out: Thrombin Ki) it was more than 25 µM. Moreover, in test [1] (setting [5]), the “MASP-2 vs. thrombin selectivity” value was “**** (≥100-fold)”.
For the compound `Cc1nc(N)ccc1CNC(=O)[C@H](C)NC(=O)[C@H]1C[C@H](Cc2cc3ccccc3s2)CN1` [compound 1458, (2R,4R)—N—((S)-1-(((6-Amino-2-methylpyridin-3-yl)methyl)amino)-1-oxopropan-2-yl)-4-(benzo[b]thiophen-2-ylmethyl)pyrrolidine-2-carboxamide Di-trifluoroacetate salt], the inhibition constant (Ki) in test [1] (read-out: MASP-2 Ki) is less than 0.5 µM; in test [2] it was less than 0.5 µM; in test [3] (read-out: Thrombin Ki), more than 25 µM. In addition, in test [1] (setting [5]), the “MASP-2 vs. thrombin selectivity” value was “**** (≥100-fold)”.
With `C[C@H](NC(=O)[C@H]1C[C@H](c2ccccc2)CN1)C(=O)NCc1cc(Cl)cc(C(N)=O)c1` [compound 1387, (2R,4R)—N—((S)-1-((3-Carbamoyl-5-chlorobenzyl)amino)-1-oxopropan-2-yl)-4-phenylpyrrolidine-2-carboxamide Trifluoroacetate salt], the Ki in test [1] is 2.5 to 10 µM; in test [2], 10 to 25 µM; in test [3] (read-out: Thrombin Ki), more than 25 µM.
Turning to `C[C@H](NC(=O)[C@H](N)CCc1ccccc1)C(=O)NCc1cnc(N)c(Cl)c1` [compound 1275, (R)-2-Amino-N—((S)-1-(((6-amino-5-chloropyridin-3-yl)methyl)amino)-1-oxopropan-2-yl)-4-phenylbutanamide], the Ki in test [1] is 0.5 to 2.5 µM; in test [2], more than 25 µM; in test [3] (read-out: Thrombin Ki), more than 25 µM. Further, in test [1] (setting [5]), the “MASP-2 vs. thrombin selectivity” value is given as “*** (≥25 to <100-fold)”.
As for `C[C@H](NC(=O)[C@H]1C[C@H](Cc2ccccc2-c2ccc(Cl)s2)CN1)C(=O)NCc1cc(Cl)ccc1-n1cnnn1` [compound 1409, (2R,4S)—N—((S)-1-((5-Chloro-2-(1H-tetrazol-1-yl)benzyl)amino)-1-oxopropan-2-yl)-4-(2-(5-chlorothiophen-2-yl)benzyl)pyrrolidine-2-carboxamide Trifluoroacetate], the Ki in test [1] (read-out: MASP-2 Ki) is less than 0.5 µM; in test [2] it was 2.5 to 10 µM; in test [3] (read-out: Thrombin Ki), less than 0.5 µM. Moreover, the “MASP-2 vs. thrombin selectivity” value in test [1] (setting [5]) was “* (≥1.0 to <5.0-fold)”.

By Ki is commonly meant a dissociation constant, usually derived from enzyme kinetics or from competition with a known ligand.

Values taken from patent US11584714B2 (priority 2018, dated 2023).
